Measurements: article PMC8794255, “Small molecule inhibitor of Igf2bp1 represses Kras and a pro-oncogenic phenotype in cancer cells” (RNA Biology, 2021)
Several values for one entry are separate records, joined by “and”; a condition that tells them apart may be missing. Identical values can stand only once.

Columns and labels:
G9a = biological target: T1, G9a (Homo sapiens, UniProt Q96KQ7); assay: G9a FP assay (SAH-FITC probe); assay type: biochemical
T1 sequence (Q96KQ7 1-1210): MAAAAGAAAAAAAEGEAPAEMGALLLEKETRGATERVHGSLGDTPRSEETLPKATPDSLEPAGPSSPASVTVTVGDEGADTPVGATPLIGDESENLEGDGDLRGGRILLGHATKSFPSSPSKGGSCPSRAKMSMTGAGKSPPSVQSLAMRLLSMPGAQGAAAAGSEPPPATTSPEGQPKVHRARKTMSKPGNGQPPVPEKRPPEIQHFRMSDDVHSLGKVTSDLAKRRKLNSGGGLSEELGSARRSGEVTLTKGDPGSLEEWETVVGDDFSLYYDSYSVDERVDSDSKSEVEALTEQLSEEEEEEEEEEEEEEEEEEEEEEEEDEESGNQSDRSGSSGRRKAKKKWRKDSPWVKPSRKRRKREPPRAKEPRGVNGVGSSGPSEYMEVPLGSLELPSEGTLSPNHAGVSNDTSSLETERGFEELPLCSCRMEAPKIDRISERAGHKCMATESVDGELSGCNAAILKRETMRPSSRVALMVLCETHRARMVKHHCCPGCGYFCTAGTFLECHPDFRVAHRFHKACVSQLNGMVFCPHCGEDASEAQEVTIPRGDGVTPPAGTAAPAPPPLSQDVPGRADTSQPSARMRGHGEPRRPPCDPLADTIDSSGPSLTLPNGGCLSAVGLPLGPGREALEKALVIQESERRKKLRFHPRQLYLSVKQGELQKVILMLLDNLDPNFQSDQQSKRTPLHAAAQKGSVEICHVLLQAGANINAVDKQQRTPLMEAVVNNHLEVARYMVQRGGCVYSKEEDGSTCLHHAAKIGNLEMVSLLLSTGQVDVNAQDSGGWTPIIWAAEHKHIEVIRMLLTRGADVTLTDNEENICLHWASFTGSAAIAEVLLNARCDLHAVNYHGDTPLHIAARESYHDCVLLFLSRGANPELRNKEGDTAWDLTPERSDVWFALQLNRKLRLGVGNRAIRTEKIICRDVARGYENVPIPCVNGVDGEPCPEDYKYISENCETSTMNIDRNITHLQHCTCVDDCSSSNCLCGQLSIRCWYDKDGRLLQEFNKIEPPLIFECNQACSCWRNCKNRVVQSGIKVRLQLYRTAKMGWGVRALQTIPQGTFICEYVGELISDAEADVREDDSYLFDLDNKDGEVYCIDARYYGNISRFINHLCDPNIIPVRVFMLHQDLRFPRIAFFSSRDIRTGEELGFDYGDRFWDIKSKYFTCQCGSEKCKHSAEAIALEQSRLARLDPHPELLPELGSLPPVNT
Procedure: (§1) For the small-molecule screen, compounds were obtained from the collection maintained at the Grand Israel National Center for Personalized Medicine, consisting of molecules purchased from commercial vendors. Labelled RNA (10 nM) was incubated with recombinant Igf2bp1 protein (400 nM) in FAM-RNA buffer (10 mM Tris pH 8.0, 75 mM KCl, 0.5 mM EDTA, 1 mM DTT, 0.0188 U/μL RNAsin, 0.0005 μg/mL heparin, 0.0001 μg/μL tRNA, 0.01% Triton X-100, 3 mM MgCl2, 0.05% IGEPAL) at room temperature for 15 min. 7 μL of this reaction mix was aliquoted with GNF WDII (USA) into wells of 1536 well plates, with a final concentration of 20 μM compound or DMSO. The plates were spun down and read in a BMG Pherastar FS (Germany) plate reader, in FP mode with a 485/520/520 polarization filter, calibrated to 35 mP for free fluorescein with similar total intensity as experimental samples. The G9a FP assay was based on using an S-adenosylhomocysteine (SAH)-FITC probe and antibody to SAH to produce a high FP signal when the antibody binds to SAH-FITC. Unlabelled SAH produced by incubation of G9a enzyme with S-adenosylmethionine (SAM) and peptide substrate competes for the antibody and results in a low FP signal. One hundred per cent activity means that G9a is fully active and therefore a low FP signal is observed (SAH is produced)

ES2 cells = assay: qPCR of Igf2bp1 target RNAs in ES2 cells; assay type: cell-based, human
Procedure: Cells were grown for 12 hours in 12 well plates prior to incubation with the compound at different concentrations for an additional 12 or 24 hours. Total RNA was then extracted using EZ-RNA total RNA isolation kit (Biological Industries) and cDNA prepared from the RNA using the First Strand cDNA Synthesis kit (Quanta bio). Real time PCR was performed with Fast SYBR Green Master Mix (Thermo Fisher Scientific), and cDNA expression analysed with the Bio-Rad CFX Manager 3.1.

HEK293 cells = assay: Wound healing (cell migration) assay, HEK293; assay type: cell-based, human
Procedure: Cells were seeded in 96 IncuCyte® ImageLock plates (20X10^3 cells per well) for 24 hours, to a near confluency of 95%, before the addition of increasing concentrations of compound. After a further 24 hours, wells were scratched using the IncuCyte® 96-well WoundMaker Tool, and the cells cultured for an additional 48 hours using the IncuCyte® S3 Live-Cell Analysis System (Essen BioScience). The plate was imaged at increments of 120 minutes for a period of 48 hours, and then analysed for relative wound healing.

Igf2bp1 = biological target: T2, Igf2bp1 (Homo sapiens, UniProt Q9NZI8); assay: Fluorescence polarization (FP) assay of Igf2bp1 binding to fluorescent Kras 6 RNA; settings: FP dose response; read-out: IC50, inhibition of Igf2bp1 binding to Kras 6 RNA
T2 construct: Recombinant full-length Igf2bp1 protein was labelled with RED-tris-NTA dye; made in house
T2 sequence (Q9NZI8 whole entry): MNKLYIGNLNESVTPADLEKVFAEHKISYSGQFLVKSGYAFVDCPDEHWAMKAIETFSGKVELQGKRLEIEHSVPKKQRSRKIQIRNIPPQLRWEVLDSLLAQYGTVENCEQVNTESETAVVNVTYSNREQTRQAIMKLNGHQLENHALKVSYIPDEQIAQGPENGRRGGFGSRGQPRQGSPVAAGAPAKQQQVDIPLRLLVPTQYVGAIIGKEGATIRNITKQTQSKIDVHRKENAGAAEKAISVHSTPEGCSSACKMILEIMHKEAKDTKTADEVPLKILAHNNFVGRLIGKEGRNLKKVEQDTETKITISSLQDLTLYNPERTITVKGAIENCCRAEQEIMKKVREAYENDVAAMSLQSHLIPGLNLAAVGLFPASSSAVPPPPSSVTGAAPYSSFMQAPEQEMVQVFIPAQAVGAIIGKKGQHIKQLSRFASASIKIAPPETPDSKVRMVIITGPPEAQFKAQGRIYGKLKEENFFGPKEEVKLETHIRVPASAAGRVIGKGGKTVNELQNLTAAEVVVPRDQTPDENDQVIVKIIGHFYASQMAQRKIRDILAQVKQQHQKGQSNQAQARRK
Procedure: as §1, with “The G9a FP assay was based on using an S-adenosylhomocysteine (SAH)-FITC probe and antibody to SAH to produce a high FP signal when the antibody binds to SAH-FITC. Unlabelled SAH produced by incubation of G9a enzyme with S-adenosylmethionine (SAM) and peptide substrate competes for the antibody and results in a low FP signal. One hundred per cent activity means that G9a is fully active and therefore a low FP signal is observed (SAH is produced)” left out
To determine the quality of our screening assay, the Z’ factor for each plate was calculated with a Z’ factor greater than 0.5 indicating a robust assay suitable for high throughput screening. Compounds that altered the overall fluorescence intensity compared to controls were considered auto florescence and excluded from further analysis. […] Any small molecule that causes a change of more than three standard deviations from the mean is determined appropriate for further investigation.

Igf2bp3 = biological target: T3, Igf2bp3 (Homo sapiens, UniProt O00425); assay: MST, Igf2bp3; settings: IGF2BP3 50nM, read-out: KD of binding to Igf2bp3
T3 construct: made in house
T3 sequence (O00425 whole entry, species assumed): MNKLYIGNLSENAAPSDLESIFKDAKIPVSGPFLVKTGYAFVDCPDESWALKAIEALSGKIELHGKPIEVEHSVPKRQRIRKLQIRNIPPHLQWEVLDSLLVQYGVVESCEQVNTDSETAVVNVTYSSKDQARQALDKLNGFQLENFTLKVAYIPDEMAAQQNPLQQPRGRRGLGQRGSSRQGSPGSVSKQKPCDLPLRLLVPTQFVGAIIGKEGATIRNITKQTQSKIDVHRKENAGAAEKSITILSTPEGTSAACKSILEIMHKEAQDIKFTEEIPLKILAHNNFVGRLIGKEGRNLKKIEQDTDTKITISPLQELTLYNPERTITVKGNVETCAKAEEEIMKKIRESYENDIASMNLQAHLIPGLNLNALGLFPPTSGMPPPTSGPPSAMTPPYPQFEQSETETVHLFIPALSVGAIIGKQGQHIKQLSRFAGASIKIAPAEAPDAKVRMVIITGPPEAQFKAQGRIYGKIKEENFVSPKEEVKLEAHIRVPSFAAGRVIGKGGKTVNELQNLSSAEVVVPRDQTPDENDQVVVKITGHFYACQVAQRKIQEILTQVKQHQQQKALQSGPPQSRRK

## O=C(c1ccc(Cn2cnnn2)cc1)N1CCCC(Nc2ccc3c(c2)OCO3)C1 (stereo not drawn) [compound 7773]
G9a
  Effect on G9a catalysing methylation of a peptide: almost no effect
ES2 cells; ES2, 20 μM 7773, 12 and 24 hours
  Steady state level of CD44 RNA: strongly reduced after 12 hours, but appeared to recover after 24 hours
ES2 cells; ES2, 20 μM 7773, 12 hours
  Steady state levels of CD44, Kras, cMyc and SRF RNA: all of the assayed RNAs were reduced
ES2 cells; ES2, 20 μM 7773, 24 hours
  Steady state levels of CD44, Kras, cMyc and SRF RNA: 3 of the 4 RNAs showing similar or even enhanced reduction
ES2 cells; ES2, 24 hours
  Levels of control RNAs that are not targets of Igf2bp1: not significantly affected
HEK293 cells; HEK293, 20 μM
  Wound healing: strongly inhibited
HEK293 cells; HEK293, lowest concentration 5 μM
  Wound healing: discernible inhibition
Igf2bp1
  IC50: ~30 µM and 30.4 µM
Igf2bp3
  Kd: 52 µM
